Results reported in ChEMBL document CHEMBL4834485, “Designed, synthesized and biological evaluation of proteolysis targeting chimeras (PROTACs) as AR degraders for prostate cancer treatment” (Bioorg Med Chem, 2021).
The source made the active and inactive calls. The calls are words filed in the database; no cut-off is given here.

Experiments:
[1] = Drug uptake in AR-positive human LNCaP cells assessed as increase in fluorescence intensity at 10 uM incubated for 24 hrs by DAPI staining based confocal laser scanning microscopy; format: ADME
[2] = Drug uptake in AR-negative human PC-3 cells assessed as increase in fluorescence intensity at 10 uM incubated for 24 hrs by DAPI staining based confocal laser scanning microscopy; format: ADME, cell-based; settings: pc-3, 24 h
[3] = biological target: T1, Protein cereblon/Androgen receptor (Homo sapiens) (UniProt P10275+Q96SW2); assay: PROTAC activity at CRBN/AR in human LNCaP cells assessed as induction of AR degradation by measuring downregulation of AR protein expression measured after 24 hrs by western blot assay; format: cell-based; settings: dose 10-30 µM
[4] = biological target: T1, Protein cereblon/Androgen receptor (Homo sapiens); assay: PROTAC activity at CRBN/AR in human LNCaP cells assessed as induction of AR degradation by measuring downregulation of AR protein expression at 30 uM measured after 24 hrs by western blot assay; format: cell-based

T1 sequence (P10275 whole entry, looked up): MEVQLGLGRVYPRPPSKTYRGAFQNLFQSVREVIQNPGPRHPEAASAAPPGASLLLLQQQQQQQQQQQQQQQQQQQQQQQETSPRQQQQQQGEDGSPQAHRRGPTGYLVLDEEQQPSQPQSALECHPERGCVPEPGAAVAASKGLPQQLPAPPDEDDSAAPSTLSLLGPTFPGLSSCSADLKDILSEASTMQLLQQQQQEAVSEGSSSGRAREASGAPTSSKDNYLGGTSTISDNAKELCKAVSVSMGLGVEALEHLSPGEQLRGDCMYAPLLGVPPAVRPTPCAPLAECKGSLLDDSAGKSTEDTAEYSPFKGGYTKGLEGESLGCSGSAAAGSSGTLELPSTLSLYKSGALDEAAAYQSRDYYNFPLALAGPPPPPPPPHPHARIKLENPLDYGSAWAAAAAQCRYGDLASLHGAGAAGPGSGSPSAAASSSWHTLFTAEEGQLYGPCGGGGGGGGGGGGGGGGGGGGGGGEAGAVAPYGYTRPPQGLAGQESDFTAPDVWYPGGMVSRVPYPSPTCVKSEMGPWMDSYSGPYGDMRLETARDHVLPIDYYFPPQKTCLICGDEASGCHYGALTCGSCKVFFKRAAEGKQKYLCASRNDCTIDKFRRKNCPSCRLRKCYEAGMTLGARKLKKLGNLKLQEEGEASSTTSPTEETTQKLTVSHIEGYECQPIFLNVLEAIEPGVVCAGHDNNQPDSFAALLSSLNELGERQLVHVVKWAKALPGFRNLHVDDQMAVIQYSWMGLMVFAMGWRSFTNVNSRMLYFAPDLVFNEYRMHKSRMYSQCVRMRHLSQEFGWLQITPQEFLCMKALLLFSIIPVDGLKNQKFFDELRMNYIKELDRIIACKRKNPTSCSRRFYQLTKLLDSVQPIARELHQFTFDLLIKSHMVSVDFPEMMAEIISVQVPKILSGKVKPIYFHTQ
T1 sequence (Q96SW2 whole entry, looked up): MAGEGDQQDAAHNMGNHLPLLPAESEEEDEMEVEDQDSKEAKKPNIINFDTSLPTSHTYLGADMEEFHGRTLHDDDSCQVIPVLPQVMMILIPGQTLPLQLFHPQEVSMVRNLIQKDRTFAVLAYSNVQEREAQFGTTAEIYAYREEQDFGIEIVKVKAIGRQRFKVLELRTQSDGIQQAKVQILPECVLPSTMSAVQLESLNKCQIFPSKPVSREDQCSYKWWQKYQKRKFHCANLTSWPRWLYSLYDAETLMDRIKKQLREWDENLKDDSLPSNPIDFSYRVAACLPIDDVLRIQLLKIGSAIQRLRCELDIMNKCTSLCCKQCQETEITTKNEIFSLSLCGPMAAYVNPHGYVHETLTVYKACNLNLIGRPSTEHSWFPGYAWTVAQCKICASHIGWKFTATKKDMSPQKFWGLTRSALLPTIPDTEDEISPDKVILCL

Drug uptake [1] | Drug uptake [2] | Activity [3] | Activity [4] | SMILES
Active | Active |  |  | Nc1cccc2c1C(=O)N(C1CCC(=O)NC1=O)C2=O (centres undefined) [POMALIDOMIDE]
 |  | Dose-Dependent Effect | Active | CC1(C)C(=O)N(c2ccc(C#N)c(C(F)(F)F)c2)C(=S)N1CCCn1cc(COCCOCCOc2cccc3c2C(=O)N(C2CCC(=O)NC2=O)C3=O)nn1 (centres undefined)
